Laboratory results as given in patent US6458828B1, “Deodorants, foods and beverages, and oral compositions as well as toiletry products” (Lotte Co., Ltd., priority 1999, dated 2002).

Legend:
[1] = Gas chromatography analysis of sulfides with caramels and maltols; details: garlic and onion odor ingredients
Description: Also, in Japanese laid-open publication 62-169720, it is also disclosed that caramels and maltols (3-hydroxy-2-methyl-γ-pyrone) obtained from heating sucrose or glucose show deodorizing effect against garlic and onion odors. If, however, the odor composition was analyzed by a gas chromatography, then no change in odor composition was observed.

[2] = Test 3 deodorizing effect test against ammonia (Kitagawa detecting tube); details: 50 mg sample in 1.96 ml water, 40 μl ammonia solution (0.28%), 5 minutes at 37° C.
Description: Each of 50 mg of the palatinose-derived thermal decomposition of Example 1 and sodium copper chlorophyllin was dissolved into 1.96 ml of water in 100 ml of the vial respectively. Then, 40 μl of an ammonia solution (0.28%) was added and shaken for 5 minutes at 37° C. and 100 ml of the vapor phase component in the vial was measured under a vacuum pressure by use of a Kitagawa detecting tube (ammonia No.3). The deodorizing rate of each sample was calculated from the concentration of ammonia in case of addition of no sample.

[3] = Test 1 deodorizing effect test (head-space gas chromatography, pH 7.5); details: reduction ratio of methylmercaptan vs sample-free system; sample 7.5 mg/ml, pH 7.5, 25 ppm sodium methylmercaptan, 30 minutes at 37° C.
Description: After 1.0 ml of the sample solution and 0.5 ml of 25 ppm sodium methylmercaptan was added in a vial to shake the same for 30 minutes at 37° C., and then 200 μl of a vapor phase component in the vial was gathered. An amount of formed methylmercaptan was measured by the gas chromatography to compare the same with a sample-free system, thereby to find a reduction ratio of methylmercaptan as a deodorizing coefficient. […] The gas chromatography uses “GC-9A” commercially available from Shimazu Manufacturing Co., Ltd. The measuring conditions were described below. [table]

[4] = Deodorizing activity by head-space method using gas chromatography (general statements)
Excerpt: The resent inventors have researched on various materials to discover the effective deodorant in the head-space method using a gas chromatography.

## Cc1occc(=O)c1O [maltols, 3-hydroxy-2-methyl-γ-pyrone]
[1]
  change in composition of sulfides (methyl marcaptan, allyl marcaptan) by gas chromatography: no change in the composition was observed

## sodium copper chlorophyllin
[2]
  Rate of deodorizing (%): 9.2%

## OC[C@H]1O[C@H](OC[C@H]2OC(O)(CO)[C@@H](O)[C@@H]2O)[C@H](O)[C@@H](O)[C@@H]1O (some centres unmarked) [Palatinose, palatinose]
[3]
  Deodorant coefficient (%): 0.0%
[4]
  deodorizing activity / effect against methyl mercaptan (in words): does not provide such the effect

## OC[C@H]1O[C@@](CO)(O[C@H]2O[C@H](CO)[C@@H](O)[C@H](O)[C@H]2O)[C@@H](O)[C@@H]1O [Sucrose, sucrose]
[3]
  Deodorant coefficient (%): 0.0%
